Test results as given in the NIST ThermoML archive (doi:10.1016/j.fluid.2010.03.017).
Numbers after ± are expanded uncertainties.

Legend:
[1] = cn = amount concentration of the nth substance listed, in mol/dm3; conditions: 101 kPa, Liquid
[2] = specific heat capacity at constant pressure; cn = amount concentration of the nth substance listed, in mol/dm3; conditions: 101 kPa, Liquid, heat flux microcalorimetry

CC#N [acetonitrile] + [Cl-].c1ccc([P+](c2ccccc2)(c2ccccc2)c2ccccc2)cc1
c2 = 0
Conditions	mass density, 308.65 K [kg/m3]	mass density, 311.65 K [kg/m3]	mass density, 314.65 K [kg/m3]	specific heat capacity, 308.65 K [J/K/kg]	specific heat capacity, 311.65 K [J/K/kg]	specific heat capacity, 314.65 K [J/K/kg]
[1]	765.82 ± 2	762.77 ± 2	759.726 ± 2.1	–	–	–
[2]	–	–	–	2274.3 ± 45	2280.4 ± 46	2286.5 ± 46

CCO [ethanol] + [Cl-].c1ccc([P+](c2ccccc2)(c2ccccc2)c2ccccc2)cc1
c2 = 0
Conditions	mass density, 308.65 K [kg/m3]	mass density, 311.65 K [kg/m3]	mass density, 314.65 K [kg/m3]	specific heat capacity, 308.65 K [J/K/kg]	specific heat capacity, 311.65 K [J/K/kg]	specific heat capacity, 314.65 K [J/K/kg]
[1]	775.93 ± 1.9	773.4 ± 1.9	770.84 ± 2	–	–	–
[2]	–	–	–	2592.8 ± 52	2653.8 ± 53	2694.1 ± 54

CO [methanol] + [Cl-].c1ccc([P+](c2ccccc2)(c2ccccc2)c2ccccc2)cc1
c2 = 0
Conditions	mass density, 308.65 K [kg/m3]	mass density, 311.65 K [kg/m3]	mass density, 314.65 K [kg/m3]	specific heat capacity, 308.65 K [J/K/kg]	specific heat capacity, 311.65 K [J/K/kg]	specific heat capacity, 314.65 K [J/K/kg]
[1]	776.519 ± 1.9	773.896 ± 1.9	771.1 ± 2	–	–	–
[2]	–	–	–	2554.5 ± 51	2577 ± 52	2621 ± 52

[Cl-].c1ccc([P+](c2ccccc2)(c2ccccc2)c2ccccc2)cc1 [tetraphenylphosphonium chloride] + CC#N
Conditions	mass density, c1 = 0.005 [kg/m3]	mass density, c1 = 0.01 [kg/m3]	mass density, c1 = 0.02 [kg/m3]	mass density, c1 = 0.05 [kg/m3]	mass density, c1 = 0.1 [kg/m3]	specific heat capacity, c1 = 0.005 [J/K/kg]	specific heat capacity, c1 = 0.01 [J/K/kg]	specific heat capacity, c1 = 0.02 [J/K/kg]	specific heat capacity, c1 = 0.05 [J/K/kg]	specific heat capacity, c1 = 0.1 [J/K/kg]
[1], 308.65 K	767.478 ± 2	768.43 ± 2	772.35 ± 2	776.18 ± 1.9	784.14 ± 1.9	–	–	–	–	–
[1], 311.65 K	764.4 ± 2	765.22 ± 2	769.19 ± 2	773.42 ± 1.9	780.77 ± 1.9	–	–	–	–	–
[1], 314.65 K	762.76 ± 2	762.76 ± 2	766.82 ± 2	770.87 ± 2	777.19 ± 1.9	–	–	–	–	–
[2], 308.65 K	–	–	–	–	–	2269.4 ± 45	2269.1 ± 45	2258.9 ± 45	2255.3 ± 45	2238.7 ± 45
[2], 311.65 K	–	–	–	–	–	2275.5 ± 46	2277 ± 46	2267.8 ± 45	2265.6 ± 45	2250.6 ± 45
[2], 314.65 K	–	–	–	–	–	2281.3 ± 46	2282.6 ± 46	2274.3 ± 45	2267.5 ± 45	2257.9 ± 45

[Cl-].c1ccc([P+](c2ccccc2)(c2ccccc2)c2ccccc2)cc1 [tetraphenylphosphonium chloride] + CCO
Conditions	mass density, c1 = 0.005 [kg/m3]	mass density, c1 = 0.01 [kg/m3]	mass density, c1 = 0.02 [kg/m3]	mass density, c1 = 0.05 [kg/m3]	mass density, c1 = 0.1 [kg/m3]	specific heat capacity, c1 = 0.005 [J/K/kg]	specific heat capacity, c1 = 0.01 [J/K/kg]	specific heat capacity, c1 = 0.02 [J/K/kg]	specific heat capacity, c1 = 0.05 [J/K/kg]	specific heat capacity, c1 = 0.1 [J/K/kg]
[1], 308.65 K	777.31 ± 1.9	778.02 ± 1.9	778.83 ± 1.9	784.24 ± 1.9	791.62 ± 1.8	–	–	–	–	–
[1], 311.65 K	775.32 ± 1.9	775.16 ± 1.9	776.11 ± 1.9	781.91 ± 1.9	789.98 ± 1.9	–	–	–	–	–
[1], 314.65 K	772.48 ± 1.9	772.21 ± 1.9	773.38 ± 1.9	779.58 ± 1.9	787.77 ± 1.9	–	–	–	–	–
[2], 308.65 K	–	–	–	–	–	2520.9 ± 50	2545.7 ± 51	2549.3 ± 51	2555.5 ± 51	2570 ± 51
[2], 311.65 K	–	–	–	–	–	2581.5 ± 52	2600.7 ± 52	2606.3 ± 52	2607.1 ± 52	2623 ± 52
[2], 314.65 K	–	–	–	–	–	2627.1 ± 52	2638.3 ± 53	2650.8 ± 53	2650 ± 53	2633.7 ± 53

[Cl-].c1ccc([P+](c2ccccc2)(c2ccccc2)c2ccccc2)cc1 [tetraphenylphosphonium chloride] + CO
Conditions	mass density, c1 = 0.005 [kg/m3]	mass density, c1 = 0.01 [kg/m3]	mass density, c1 = 0.02 [kg/m3]	mass density, c1 = 0.05 [kg/m3]	mass density, c1 = 0.1 [kg/m3]	specific heat capacity, c1 = 0.005 [J/K/kg]	specific heat capacity, c1 = 0.01 [J/K/kg]	specific heat capacity, c1 = 0.02 [J/K/kg]	specific heat capacity, c1 = 0.05 [J/K/kg]	specific heat capacity, c1 = 0.1 [J/K/kg]
[1], 308.65 K	776.52 ± 1.9	779.51 ± 1.9	780.37 ± 1.9	787.22 ± 1.9	793.29 ± 1.8	–	–	–	–	–
[1], 311.65 K	774.51 ± 1.9	778.81 ± 1.9	777.85 ± 1.9	784.14 ± 1.9	790.42 ± 1.9	–	–	–	–	–
[1], 314.65 K	771.62 ± 1.9	775.7 ± 1.9	774.95 ± 1.9	782.06 ± 1.9	788.49 ± 1.9	–	–	–	–	–
[2], 308.65 K	–	–	–	–	–	2543.2 ± 51	2548.5 ± 51	2556.9 ± 51	2605.5 ± 52	2660.8 ± 53
[2], 311.65 K	–	–	–	–	–	2564.1 ± 51	2565.8 ± 51	2582.9 ± 52	2628.9 ± 53	2691.7 ± 54
[2], 314.65 K	–	–	–	–	–	2570.9 ± 51	2605.9 ± 52	2599.5 ± 52	2637.3 ± 53	2721.3 ± 54

[Cl-].c1ccc([P+](c2ccccc2)(c2ccccc2)c2ccccc2)cc1 [tetraphenylphosphonium chloride] + O
Conditions	mass density, c1 = 0.005 [kg/m3]	mass density, c1 = 0.01 [kg/m3]	mass density, c1 = 0.02 [kg/m3]	mass density, c1 = 0.05 [kg/m3]	mass density, c1 = 0.1 [kg/m3]	specific heat capacity, c1 = 0.005 [J/K/kg]	specific heat capacity, c1 = 0.01 [J/K/kg]	specific heat capacity, c1 = 0.02 [J/K/kg]	specific heat capacity, c1 = 0.05 [J/K/kg]	specific heat capacity, c1 = 0.1 [J/K/kg]
[1], 308.65 K	994.05 ± 0.54	995.67 ± 0.53	998.12 ± 0.52	996.84 ± 0.53	1001.06 ± 0.52	–	–	–	–	–
[1], 311.65 K	993.46 ± 0.54	994.88 ± 0.54	996.99 ± 0.52	995.58 ± 0.53	997.28 ± 0.53	–	–	–	–	–
[1], 314.65 K	991.77 ± 0.56	992.33 ± 0.55	995.43 ± 0.53	994.11 ± 0.54	995.93 ± 0.53	–	–	–	–	–
[2], 308.65 K	–	–	–	–	–	4202.5 ± 84	4203.6 ± 84	4207 ± 84	4217.3 ± 84	4229.9 ± 85
[2], 311.65 K	–	–	–	–	–	4203.6 ± 84	4206.5 ± 84	4209.8 ± 84	4218.4 ± 84	4241.9 ± 85
[2], 314.65 K	–	–	–	–	–	4203.8 ± 84	4208.4 ± 84	4211.1 ± 84	4219.7 ± 84	4244.7 ± 85

O [water] + [Cl-].c1ccc([P+](c2ccccc2)(c2ccccc2)c2ccccc2)cc1
c2 = 0
Conditions	mass density, 311.65 K [kg/m3]	mass density, 314.65 K [kg/m3]	specific heat capacity, 308.65 K [J/K/kg]	specific heat capacity, 311.65 K [J/K/kg]	specific heat capacity, 314.65 K [J/K/kg]
[1]	993.13 ± 0.55	991.68 ± 0.56	–	–	–
[2]	–	–	4182 ± 84	4182.2 ± 84	4182.4 ± 84
